Experiment [1] relates to csgA expression in E. coli MC4100. Nature of the experiment: csgA expression relative to housekeeping genes recA and cysG in E. coli MC4100 monocolonized mice (FIGS. 8A-D). Type of experiment: in vivo.
Another experiment has as its system fecal water content. The experiment can be described thus: Fecal water content in MC4100 mice treated with compound vs control chow (FIG. 6). Type of experiment: in vivo, mouse. The following applies: 12-14 weeks of age; vs MC4100-control chow group.
The target of another experiment is T1, E. coli CsgA (Escherichia coli, UniProt P28307).
T1 construct: made in house; host or cells: E. coli NEB 3016 slyD::kan, pET11d
T1 sequence (P28307 23-151): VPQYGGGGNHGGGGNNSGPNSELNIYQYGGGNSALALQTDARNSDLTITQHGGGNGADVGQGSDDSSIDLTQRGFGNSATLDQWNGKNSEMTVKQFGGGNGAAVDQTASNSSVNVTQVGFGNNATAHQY
The experiment can be described thus: In vitro ThioflavinT assay of CsgA aggregation (CsgA ThT Assay). Type of experiment: biochemical. The following applies: for remaining activity at 25 µM: compound 25 μM; for remaining activity at 100 µM: compound 100 μM. In short, it runs like this:
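Purified C-terminal His-tagged CsgA, monomerised by desalting and 30-kDa filtration, at 2-20 μM with 20-40 μM ThT in 50 mM potassium phosphate pH 7.3, 1% DMSO, compounds 3.125-200 uM; room temperature, fluorescence (ex 438/em 495 nm) read every 15 min. Background-subtracted signal expressed as percent inhibition versus vehicle at 6-6.5 or 8-9 h, or as percent control AUC.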

The next experiment relates to number of fecal pellets. Nature of the experiment: Fecal pellet output in MC4100 mice treated with compound vs control chow (FIG. 5). Type of experiment: in vivo, mouse. The following applies: 12-14 weeks of age; compared to MC4100-control chow group; statistical difference was not reached.
Experiment [2] relates to time to descend from a pole. The experiment can be described thus: Pole descent test in MC4100 mice treated with compound vs control chow (FIG. 7). Type of experiment: in vivo, mouse. Conditions: 18-20 weeks of age; vs MC-4100 control chow group.
Experiment [3] deals with CsgA expression in E. coli MC4100. The experiment can be described thus: Monocolonized Mouse Model: csgA expression in fecal pellets by qRT-PCR. The following applies: 30 mg/kg, day five of treatment, relative to mice treated with vehicle alone (FIGS. 4A-B). For orientation: In qPCR the cycle at which signal appears reflects the starting amount.
Setting [4] is: read-out: CsgA ThT Assay (2 μM CsgA) % Control Bmax 25 μM, activity range, class symbol, CsgA 2 μM, white plates.
[5] abbreviates: read-out: CsgA ThT Assay (2 μM CsgA) % Control Bmax 25 μM, mean Bmax as percentage of DMSO control, CsgA 2 μM, white plates.
Where [6] appears, read: read-out: CsgA ThT Assay (2 μM CsgA) % Control Bmax 100 μM, activity range, class symbol, CsgA 2 μM, white plates.
[7] abbreviates: read-out: CsgA ThT Assay (2 μM CsgA) % Control Bmax 100 μM, mean Bmax as percentage of DMSO control, CsgA 2 μM, white plates.

Like-named read-outs stand apart in the source and are kept apart here.

For `O=C(O)[C@@H]1CN(Cc2ccccc2)c2c(-c3cccc(C(F)(F)F)c3)c(Cc3cccc4ccccc34)c(Cl)c(=O)n21` (single isomer, unassigned) [Compound 004a], the “csgA expression relative to housekeeping genes recA and cysG” value in experiment [1] (12-14 weeks of age) is “reduction of csgA expression”; in experiment [1] (14-16 weeks of age), “repeated and observed again”. In the experiment on fecal water content, the fecal water content result is given as “restored a constipation phenotype”. The remaining activity at 25 µM on E. coli CsgA (setting [4]) was above 60%; at E. coli CsgA (setting [5]) it was 64%. Also, the results for the remaining activity at 100 µM on E. coli CsgA (setting [6]) and on E. coli CsgA (setting [7]) were 11 to 31% and 24%, respectively. Besides, the “number of fecal pellets a mouse produced at 15 min interval” value in the experiment on number of fecal pellets was “overall increase in number of fecal pellets”. Further, the “time to descend from a pole into a home cage” value in experiment [2] is reported as “trend towards improvement of the phenotype”.
Turning to `CN1CC(C(=O)O)n2c(c(-c3cccc(C(F)(F)F)c3)c(Cc3cccc4ccccc34)c(NC3CCCC3)c2=O)S1(=O)=O` (stereo not shown) [Compound 070, 7-(cyclopentylamino)-2-methyl-8-(naphthalen-1-ylmethyl)-6-oxo-9-(3-(trifluoromethyl)phenyl)-3,4-dihydro-2H,6H-pyrido[1,2-e][1,2,5]thiadiazine-4-carboxylic acid 1,1-dioxide], the remaining activity at 25 µM on E. coli CsgA (read-out: CsgA ThT Assay (10 μM CsgA) % Control AUC at 1005 minutes, 25 μM (activity range), CsgA 10 μM, black plates, 1005 minutes, class symbol) was 11 to 31%; on E. coli CsgA (read-out: CsgA ThT Assay (10 μM CsgA) % Control AUC at 1005 minutes, 25 μM, mean AUC as % of DMSO control, CsgA 10 μM, black plates, 1005 minutes), 17%. The remaining activity at 100 µM is 11 to 31% at E. coli CsgA (read-out: CsgA ThT Assay (10 μM CsgA) % Control AUC at 1005 minutes, 100 μM (activity range), CsgA 10 μM, black plates, 1005 minutes, class symbol) and 29% at E. coli CsgA (read-out: CsgA ThT Assay (10 μM CsgA) % Control AUC at 1005 minutes, 100 μM, mean AUC as % of DMSO control, CsgA 10 μM, black plates, 1005 minutes). Also, the “csgA expression in E. coli MC4100 monocolonized mice” value in experiment [3] is on record as “reduction of csgA expression”.
As for `O=C(O)C1CN(CCCO)c2c(-c3cccc(C(F)(F)F)c3)c(Cc3cccc4ccccc34)c(Cl)c(=O)n21` (stereo not shown) [Compound 197, 6-chloro-1-(3-hydroxypropyl)-7-(naphthalen-1-ylmethyl)-5-oxo-8-(3-(trifluoromethyl)phenyl)-1,2,3,5-tetrahydroimidazo[1,2-a]pyridine-3-carboxylic acid], the figures for the remaining activity at 25 µM on E. coli CsgA (setting [4]) and at E. coli CsgA (setting [5]) were above 60% and 86%, respectively. Moreover, the remaining activity at 100 µM on E. coli CsgA (setting [6]) was above 60%; on E. coli CsgA (setting [7]), 64%.
Consider `O=C(O)C1CN(Cc2ccccc2)c2c(-c3cccc(Br)c3)c(Cc3cccc4ccccc34)c(Cl)c(=O)n21` (stereo not shown) [Compound 198, 1-benzyl-8-(3-bromophenyl)-6-chloro-7-(naphthalen-1-ylmethyl)-5-oxo-1,2,3,5-tetrahydroimidazo[1,2-a]pyridine-3-carboxylic acid], for which the remaining activity at 25 µM on E. coli CsgA (setting [4]) was above 60%; at E. coli CsgA (setting [5]), 61%. Further, the remaining activity at 100 µM is 31 to 60% on E. coli CsgA (setting [6]) and 39% on E. coli CsgA (setting [7]).
The like results for `O=C(O)C1CN(CCCCCO)c2c(-c3cccc(C(F)(F)F)c3)c(Cc3cccc4ccccc34)c(Cl)c(=O)n21` (stereo not shown) [Compound 199, 6-chloro-1-(5-hydroxypentyl)-7-(naphthalen-1-ylmethyl)-5-oxo-8-(3-(trifluoromethyl)phenyl)-1,2,3,5-tetrahydroimidazo[1,2-a]pyridine-3-carboxylic acid] were, in that order, above 60%, 83%, above 60% and 99%.
On the same counts, the results for `O=C(O)C1CN(Cc2cccc3ccccc23)c2c(-c3cccc(C(F)(F)F)c3)c(Cc3cccc4ccccc34)c(Cl)c(=O)n21` (stereo not shown) [Compound 200, 6-chloro-1,7-bis(naphthalen-1-ylmethyl)-5-oxo-8-(3-(trifluoromethyl)phenyl)-1,2,3,5-tetrahydroimidazo[1,2-a]pyridine-3-carboxylic acid] are 31 to 60%, 52%, below 10% and 7%.
For `O=C(O)C1CN(Cc2ccc(-c3ccccc3)cc2)c2c(-c3cccc(C(F)(F)F)c3)c(Cc3cccc4ccccc34)c(Cl)c(=O)n21` (stereo not shown) [Compound 202, 1-([1,1′-biphenyl]-4-ylmethyl)-6-chloro-7-(naphthalen-1-ylmethyl)-5-oxo-8-(3-(trifluoromethyl)phenyl)-1,2,3,5-tetrahydroimidazo[1,2-a]pyridine-3-carboxylic acid], the remaining activity at 25 µM at E. coli CsgA (setting [4]) was 31 to 60%; at E. coli CsgA (setting [5]) it was 51%.
`O=C(O)C1CN(CCC2CCCCC2)c2c(-c3cccc(C(F)(F)F)c3)c(Cc3cccc4ccccc34)c(Cl)c(=O)n21` (stereo not shown) [Compound 207, 6-chloro-1-(2-cyclohexylethyl)-7-(naphthalen-1-ylmethyl)-5-oxo-8-(3-(trifluoromethyl)phenyl)-1,2,3,5-tetrahydroimidazo[1,2-a]pyridine-3-carboxylic acid]: the remaining activity at 25 µM at E. coli CsgA (setting [4]) was 31 to 60%; at E. coli CsgA (setting [5]), 51%. The values for the remaining activity at 100 µM at E. coli CsgA (setting [6]) and at E. coli CsgA (setting [7]) were 11 to 31% and 20%, respectively.
Take `CC(C)(C)c1ccc(Cc2c(-c3cccc(C(F)(F)F)c3)c3n(c(=O)c2Cl)C(C(=O)O)CN3Cc2ccccc2)cc1` (stereo not shown) [Compound 216, 1-benzyl-7-(4-(tert-butyl)benzyl)-6-chloro-5-oxo-8-(3-(trifluoromethyl)phenyl)-1,2,3,5-tetrahydroimidazo[1,2-a]pyridine-3-carboxylic acid]: the results for the remaining activity at 25 µM on E. coli CsgA (setting [4]) and at E. coli CsgA (setting [5]) were above 60% and 95%, respectively. The values for the remaining activity at 100 µM at E. coli CsgA (setting [6]) and at E. coli CsgA (setting [7]) were 31 to 60% and 55%, respectively.

The record behind these values is patent US20230131899A1, “INHIBITORS OF MICROBIALLY INDUCED AMYLOID” (Axial Therapeutics, Inc., priority 2020, published 2023).
